Results: patent publication US9062284B2, “Uses and detection of herbicide resistance genes for resistance to aryloxyalkanoate herbicides” (Dow ArgoSciences LLC, priority 2007, dated 2015)

Test system: Wildtype (untransformed control) Arabidopsis
Experiment: R-dichlorprop response of wildtype Arabidopsis
Type: in vivo, Arabidopsis thaliana
Conditions: 800 g ae/ha postemergence, 14 DAT
Description: All auxin herbicide applications were made using the DeVilbiss sprayer as described above to apply 703 L/ha spray volume (0.4 ml solution/3-inch pot) or applied by track sprayer in a 187 L/ha spray volume. 2,4-D used was either technical grade (Sigma, St. Louis, Mo.) dissolved in DMSO and diluted in water (<1% DMSO final concentration) or the commercial dimethylamine salt formulation (456 g ae/L, NuFarm, St Joseph, Mo.). Dichlorprop used was commercial grade formulated as potassium salt of R-dichlorprop (600 g ai/L, AH Marks). As herbicide rates increased beyond 800 g ae/ha, the pH of the spray solution became exceedingly acidic, burning the leaves of young, tender Arabidopsis plants and complicating evaluation of the primary effects of the herbicides.
The fact that AAD-1 (v3) will metabolize R-dichlorprop well enough to impart commercially acceptable tolerance is one distinguishing characteristic that separates the three genes (Table 12 and Example 7 of PCT/US2006/042133 (Wright et al., filed Oct. 27, 2006). AAD-1 and AAD-13 are considered R- and S-specific α-ketoglutarate dioxygenases, respectively.

`C[C@@H](Oc1ccc(Cl)cc1Cl)C(=O)O` [R-dichloroprop, R-dichlorprop] was tested, and the “% Injury 20-40% (individuals)” value was 0, the “% Injury <20% (individuals)” value was 0 and the “% Injury >40% (individuals)” value was 20. For the same compound, the “% Injury Ave” value was 100%.
